Experimental data published in patent publication EP2444088A1, “Amino derivatives for the treatment of proliferative skin disorders” (Almirall, S.A., priority 2010, dated 2012).

Tests used:
[1] = system: HaCaT cells; assay: Proliferation assay (HaCaT cells, ATP-lite bioluminescent readout of intracellular ATP); type: cell-based; conditions: Homo sapiens, 144 h, absolute IC50 of inhibition of proliferation, 10% FBS, 6 days incubation, mean of 3 experiments
Description: Human adult low calcium high temperature (HaCaT) cells are spontaneously transformed human keratinocytes that have the characteristics of basal epidermal keratinocytes (Boukamp et at. J Cell Biol 106:761-771, 1988) This line can be used as in vitro model for highly proliferative epidermis (Ockenfels et at., Arch Dermatol Res 287:301-309, 1995)
HaCaT cells exponentially growing were plated in clear bottom, white walled, 96-well plates at a density of 5000 cells/well in 100 µL Dulbecco's modified Eagle's medium (DMEM) containing 1% fetal bovine serum (FBS), and incubated overnight at 37 °C, 5% CO2. Next day, media in each well was replaced with 50 µL growth medium containing 10% FBS. 50 µL of compounds at two-fold the desired concentration in growth medium containing 2% dimethyl sulfoxide (DMSO) were added to the wells. Six wells were replaced with fresh 100 µL of medium containing 1% FBS and 1% DMSO and were used as a control of no proliferation. Six other wells were replaced with fresh 100 µL of medium containing 10% FBS and 1% DMSO and were used as a control of top proliferation. Each compound concentration was tested in triplicate and ranged from 100 µM to 0.4 µM in half-log serial dilutions. Plates were incubated at 37°C 5% CO2 for 6 consecutive days. […] Results were expressed as a % of inhibition of proliferation in relation to the top and bottom proliferation wells. […]

[2] = system: premalignant and malignant human cutaneous keratinocytes; conditions: cytostasis was followed by apoptosis; cited from earlier work

SMILES	IC50 [1] [nM]	effect on premalignant and malignant human cutaneous keratinocytes [2]
COc1cccc(-c2cc(F)c(Nc3ncccc3C(=O)O)c(F)c2)c1 [2-(3,5-difluoro-3'-methoxybiphenyl-4-ylamino)nicotinic acid]	580	–
O=C(O)c1cc(C2CC2)ccc1Nc1cnc(-c2c(F)cccc2F)nc1 [5-cyclopropyl-2-(2-(2,6-difluorophenyl)pyrimidin-5-ylamino)benzoic acid]	260	–
CC(O)=C(C#N)C(=O)Nc1ccc(C(F)(F)F)cc1 [Teriflunomide, 2-Butenamide, 2-cyano-3-hydroxy-N-[4-(trifluoromethyl)phenyl]-]	–	dose- and time-dependent cytostasis
